Experimental findings from publication PMC7190413 (Journal of cystic fibrosis : official journal of the …, 2019) are described below.

Read-outs that look alike come from different tables or passages of the source.

Assay [1] deals with T1, G551D-CFTR (Homo sapiens, UniProt P13569, G551D). As to the kind of experiment: Short-circuit current. In kind it is cell-based. The conditions noted are these: for forskolin-activated Isc relative to that of WT-CFTR: forskolin 20 μM.
In another assay the test system is S1251N-CFTR. As to the kind of experiment: Fractional PM activity. In kind it is cell-based, human. The following applies: CFBE; forskolin plus single potentiator; Fig. 5f.
Assay [2] concerns the target T1, G551D-CFTR. The assay can be described thus: Fractional PM activity. In kind it is cell-based. The following applies: CFBE; forskolin-stimulated, mono-therapy or dual potentiator treatment; Fig. 5d.
The target in assay [3] is T1, G551D-CFTR. As to the kind of experiment: Single-channel activity in reconstituted planar phospholipid bilayer. The conditions noted are these: PKA-activated, 28–30°C. In kind it is biochemical.
Assay [4] has as its target T1, G551D-CFTR. The assay can be described thus: Short-circuit current. The format is cell-based. The conditions noted are these: CFBE; forskolin 20 μM then acute VX-770 10 μM; Fig. 5a,b.

T1 sequence (P13569 whole entry G551D): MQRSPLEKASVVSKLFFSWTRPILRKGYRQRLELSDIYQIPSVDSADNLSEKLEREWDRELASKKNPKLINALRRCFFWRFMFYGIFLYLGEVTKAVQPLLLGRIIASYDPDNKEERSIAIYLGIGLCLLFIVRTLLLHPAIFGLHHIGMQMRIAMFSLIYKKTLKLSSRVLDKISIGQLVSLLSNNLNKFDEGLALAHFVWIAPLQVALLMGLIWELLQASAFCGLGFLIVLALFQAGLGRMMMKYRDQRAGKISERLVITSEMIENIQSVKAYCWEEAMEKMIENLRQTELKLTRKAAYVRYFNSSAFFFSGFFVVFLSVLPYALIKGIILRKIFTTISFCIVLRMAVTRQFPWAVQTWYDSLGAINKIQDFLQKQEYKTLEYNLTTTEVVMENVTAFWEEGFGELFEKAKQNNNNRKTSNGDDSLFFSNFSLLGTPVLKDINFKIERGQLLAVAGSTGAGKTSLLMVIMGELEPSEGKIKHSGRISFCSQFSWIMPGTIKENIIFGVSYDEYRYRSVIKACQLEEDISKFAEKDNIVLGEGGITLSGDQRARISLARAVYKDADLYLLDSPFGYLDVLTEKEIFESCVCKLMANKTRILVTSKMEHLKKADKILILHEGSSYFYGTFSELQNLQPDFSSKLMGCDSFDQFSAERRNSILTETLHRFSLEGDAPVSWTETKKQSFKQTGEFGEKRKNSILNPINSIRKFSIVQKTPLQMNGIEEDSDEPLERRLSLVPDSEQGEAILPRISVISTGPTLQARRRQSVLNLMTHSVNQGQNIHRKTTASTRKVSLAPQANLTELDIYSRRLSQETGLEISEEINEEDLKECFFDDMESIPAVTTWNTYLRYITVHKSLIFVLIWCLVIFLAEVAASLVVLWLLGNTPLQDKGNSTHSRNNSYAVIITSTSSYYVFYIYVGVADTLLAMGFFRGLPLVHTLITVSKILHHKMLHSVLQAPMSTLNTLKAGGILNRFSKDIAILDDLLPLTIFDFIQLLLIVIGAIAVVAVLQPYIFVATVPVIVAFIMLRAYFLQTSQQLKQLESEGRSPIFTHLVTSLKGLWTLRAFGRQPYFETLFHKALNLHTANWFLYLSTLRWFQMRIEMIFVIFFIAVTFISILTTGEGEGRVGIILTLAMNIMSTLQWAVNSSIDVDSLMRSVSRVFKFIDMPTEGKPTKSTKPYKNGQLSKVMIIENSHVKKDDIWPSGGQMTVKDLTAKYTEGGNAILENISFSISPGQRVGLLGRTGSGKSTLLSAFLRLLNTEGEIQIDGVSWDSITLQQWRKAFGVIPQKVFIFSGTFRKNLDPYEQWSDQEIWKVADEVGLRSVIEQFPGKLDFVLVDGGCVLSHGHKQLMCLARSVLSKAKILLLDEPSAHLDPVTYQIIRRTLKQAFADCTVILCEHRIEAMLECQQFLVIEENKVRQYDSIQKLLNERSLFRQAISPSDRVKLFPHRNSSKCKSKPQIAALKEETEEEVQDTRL

Turning to `CC1(C)Cc2c(sc(NC(=O)c3ccn[nH]3)c2C(N)=O)C(C)(C)O1` [ABBV-974], on G551D-CFTR [1] (HNE, G551D-CFTR, Isc EC50), the “lower potency in comparison to VX-770” value stood at 7 fold. Moreover, the EC50 at G551D-CFTR [1] (read-out: EC50 for G551D-CFTR potentiation, HNE, Isc, Supplementary Fig. 6e,f) is approximately 300 nM. For the same compound, the “fractional PM activity of S1251N after single potentiator therapy, of WT” value in the assay with S1251N-CFTR is reported as ~ 80%. The “fractional PM activity of G551D, of the WT” value at G551D-CFTR [2] is reported as 7%.
At G551D-CFTR [1], `CC(C)(C)c1cc(C(C)(C)C)c(NC(=O)c2c[nH]c3ccccc3c2=O)cc1O` [VX-770, ivacaftor] gave an EC50 of approximately 40 nM. Also, the “forskolin-activated Isc relative to that of WT-CFTR” value at G551D-CFTR [1] (HNE with G551D on both alleles) is on record as ~ 50%; at G551D-CFTR [1] (HNE with one copy of G551D), ~ 25%. Besides, the “fractional PM activity of S1251N after single potentiator therapy, of WT” value with S1251N-CFTR was ~ 80%. For the same compound, the “open probability (Po) of phosphorylated G551D-CFTR” value on G551D-CFTR [3] (3 μM VX-770) is given as ~ 0.08. In addition, the “G551D-CFTR Isc, of WT-function” value on G551D-CFTR [4] is ~ 6%. Further, the “fractional PM activity of G551D, of the WT” value on G551D-CFTR [2] was determined as 6%.
Consider `O=c1cc(-c2ccc(O)cc2)oc2cc(O)cc(O)c12` [apigenin], for which the “open probability (Po) of phosphorylated G551D-CFTR upon addition of apigenin” value at G551D-CFTR [3] (50 μM apigenin in the presence of 3 μM VX-770) came to 0.14.

Broadly, the EC50 is the concentration that produces a half-maximal response.
